# Experiments:
# human Gal-3 (hGal-3) = human Gal-3 (hGal-3) (Homo sapiens (Human), UniProt P17931); assay: Competitive binding assay: biotinylated hGal-3 binding to microplate-adsorbed asialofetuin (ASF); details: IC50 values from several measurements given as geomean
# Protocol: (§1) The inhibitory activity of compounds is determined in competitive binding assays. This spectrophotometric assay measures the binding of biotinylated human Gal-3 (hGal-3) or human Gal-1 (hGal-1), respectively, to a microplate-adsorbed glycoprotein, asialofetuin (ASF) (Proc Natl Acad Sci USA. 2013 Mar. 26; 110(13):5052-7.). Alternatively, and preferably, a human Gal-1 version in which all six cysteines are substituted by serines may be used.
# (§2) Briefly, compounds are serially diluted in DMSO (working dilutions). ASF-coated 384well plates are supplemented with 22.8 μL/well of biotinylated hGal-3 or hGal-1 in assay buffer (i.e. 300-1000 ng/mL biotinylated hGal-3 or hGal-1) to which 1.2 μL of compound working dilutions are added and mixed.
# (§3) Plates are incubated for 3 hours at 4° C., then washed with cold assay buffer (3×50 uL), incubated for 1 hour with 25 μL/well of a streptavidin-peroxidase solution (diluted in assay buffer to 80 ng/mL) at 4° C., followed by further washing steps with assay buffer (3×50 uL). Finally, 25 μL/well of ABTS substrate is added.
# (§4) The calculated IC50 values may fluctuate depending on the daily assay performance. Fluctuations of this kind are known to those skilled in the art. IC50 values from several measurements are given as geomean values.
# human Gal-1 (hGal-1) = human Gal-1 (hGal-1) (Homo sapiens, UniProt P09382, C131S/C17S/C43S/C61S/C89S); assay: Competitive binding assay: biotinylated hGal-1 binding to microplate-adsorbed asialofetuin (ASF); details: IC50 values from several measurements given as geomean
# Protocol: as §1, §2, §3, §4
# human Gal-3 (hGal-3), sequence (P17931 whole entry): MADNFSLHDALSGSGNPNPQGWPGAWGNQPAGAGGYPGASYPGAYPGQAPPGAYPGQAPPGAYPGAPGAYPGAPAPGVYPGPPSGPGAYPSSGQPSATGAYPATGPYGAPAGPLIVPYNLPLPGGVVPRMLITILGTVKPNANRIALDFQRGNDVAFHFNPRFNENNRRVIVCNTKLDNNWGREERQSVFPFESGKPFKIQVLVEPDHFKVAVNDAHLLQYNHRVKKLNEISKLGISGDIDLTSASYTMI
SMILES,IC50 (human Gal-3 (hGal-3)),IC50 (human Gal-1 (hGal-1))
"CO[C@@H]1[C@@H](n2cc(-c3ccc(Cl)c(F)c3F)nn2)[C@@H](O)[C@@H](CO)O[C@@H]1Cc1cn([C@@H]2COC[C@@H]2F)nn1 (single isomer, unassigned) [Example 2.1.74.A, (2R,3R,4S,5R,6R)-4-(4-(4-chloro-2,3-difluorophenyl)-1H-1,2,3-triazol-1-yl)-6-((1-((3R*,4R*)-4-fluorotetrahydrofuran-3-yl)-1H-1,2,3-triazol-4-yl)methyl)-2-(hydroxymethyl)-5-methoxytetrahydro-2H-pyran-3-ol]",10 nM,450 nM
CO[C@@H]1[C@@H](n2cc(-c3ccc(F)c(F)c3F)nn2)[C@@H](O)[C@@H](CO)O[C@@H]1Cc1cn(C23CCC(N)(CC2)CC3)nn1 [Ex 3.2.39.],50 nM,810 nM
CO[C@@H]1[C@@H](n2cc(-c3ccc(C#N)c(F)c3F)nn2)[C@@H](O)[C@@H](CO)O[C@@H]1Cc1cn(C2(C(F)(F)F)COC2)nn1 [Ex 5.1.58.],70 nM,1910 nM
CO[C@@H]1[C@@H](n2cc(-c3ccc(Cl)c(F)c3F)nn2)[C@@H](O)[C@@H](CO)O[C@@H]1Cc1cn(C(C)(C)CF)nn1 [Ex 2.1.45.],40 nM,1490 nM
CO[C@@H]1[C@@H](n2cc(-c3ccc(Cl)c(F)c3F)nn2)[C@@H](O)[C@@H](CO)O[C@@H]1Cn1cc(C2(C(F)(F)F)CC2)nn1 [Ex 2.2.54.],70 nM,2460 nM
CO[C@@H]1[C@@H](n2cc(-c3ccc(Cl)c(F)c3F)nn2)[C@@H](O)[C@@H](CO)O[C@@H]1Cc1cn(C2(CF)CCC2)nn1 [Ex 2.1.40.],50 nM,1630 nM
CO[C@@H]1[C@@H](n2cc(-c3ccc(Br)c(F)c3F)nn2)[C@@H](O)[C@@H](CO)O[C@@H]1Cc1cn(C2(C)CCC2)nn1 [Ex 4.1.13.],20 nM,2200 nM
"CO[C@@H]1[C@@H](n2cc(-c3ccc(F)c(F)c3F)nn2)[C@@H](O)[C@@H](CO)O[C@@H]1Cc1cn([C@@H]2CCOC[C@H]2F)nn1 (single isomer, unassigned) [Example 3.1.66.D, (2R,3R,4S,5R,6R)-6-((1-((3S*,4R*)-3-fluorotetrahydro-2H-pyran-4-yl)-1H-1,2,3-triazol-4-yl)methyl)-2-(hydroxymethyl)-5-methoxy-4-(4-(2,3,4-trifluorophenyl)-1H-1,2,3-triazol-1-yl)tetrahydro-2H-pyran-3-ol]",20 nM,310 nM
CO[C@@H]1[C@@H](n2cc(-c3ccc(Br)c(F)c3F)nn2)[C@@H](O)[C@@H](CO)O[C@@H]1Cc1cn(C2(C(F)F)COC2)nn1 [Ex 4.1.53.],20 nM,650 nM
CO[C@@H]1[C@@H](n2cc(-c3ccc(C)c(F)c3F)nn2)[C@@H](O)[C@@H](CO)O[C@@H]1Cc1cn(C23CCC(O)(CC2)CC3)nn1 [Ex 1.1.8.],50 nM,4010 nM
CO[C@@H]1[C@@H](n2cc(-c3ccc(C)c(F)c3F)nn2)[C@@H](O)[C@@H](CO)O[C@@H]1Cn1cc(C2(O)CCC2)nn1 [Ex 1.2.31.],60 nM,3760 nM
CO[C@@H]1[C@@H](n2cc(-c3ccc(Cl)c(F)c3F)nn2)[C@@H](O)[C@@H](CO)O[C@@H]1Cc1cn(C2(C)CCC2)nn1 [Ex 2.1.13.],20 nM,690 nM
COC1=C(N2CC(c3ccc(Cl)c(F)c3F)NN2)C(O)=C(CO)O[C@@H]1Cn1cc(C23CCC(NC(=O)OC(C)(C)C)(CC2)CC3)nn1 (some centres unmarked) [Ex 2.2.37.],70 nM,13100 nM
CO[C@@H]1[C@@H](n2cc(-c3ccc(C)c(F)c3F)nn2)[C@@H](O)[C@@H](CO)O[C@@H]1Cc1cn([C@@H]2CCC[C@H]2O)nn1 [Ex 1.1.2.],40 nM,6460 nM
CO[C@@H]1[C@@H](n2cc(-c3ccc(Cl)c(F)c3F)nn2)[C@@H](O)[C@@H](CO)O[C@@H]1Cn1cc(C(C)(C)O)nn1 [Ex 2.2.34.],70 nM,5120 nM
CCC(C)(CC)n1cc(C[C@H]2O[C@H](CO)[C@H](O)[C@H](n3cc(-c4ccc(Cl)c(F)c4F)nn3)[C@H]2OC)nn1 [Ex 2.1.50.],70 nM,1600 nM
